In patent US11236106B2, “Cycloalkane-1,3-diamine derivative” (Daiichi Sankyo Company, Limited, priority 2018, dated 2022):
Where a name gives a salt, the structure may show the parent alone.

Target: T1, menin and MLL (menin, Flag tagged; biotinylated MLL1 peptide 1-46aa) (Homo sapiens, UniProt O00255)
T1 sequence (O00255 1-610): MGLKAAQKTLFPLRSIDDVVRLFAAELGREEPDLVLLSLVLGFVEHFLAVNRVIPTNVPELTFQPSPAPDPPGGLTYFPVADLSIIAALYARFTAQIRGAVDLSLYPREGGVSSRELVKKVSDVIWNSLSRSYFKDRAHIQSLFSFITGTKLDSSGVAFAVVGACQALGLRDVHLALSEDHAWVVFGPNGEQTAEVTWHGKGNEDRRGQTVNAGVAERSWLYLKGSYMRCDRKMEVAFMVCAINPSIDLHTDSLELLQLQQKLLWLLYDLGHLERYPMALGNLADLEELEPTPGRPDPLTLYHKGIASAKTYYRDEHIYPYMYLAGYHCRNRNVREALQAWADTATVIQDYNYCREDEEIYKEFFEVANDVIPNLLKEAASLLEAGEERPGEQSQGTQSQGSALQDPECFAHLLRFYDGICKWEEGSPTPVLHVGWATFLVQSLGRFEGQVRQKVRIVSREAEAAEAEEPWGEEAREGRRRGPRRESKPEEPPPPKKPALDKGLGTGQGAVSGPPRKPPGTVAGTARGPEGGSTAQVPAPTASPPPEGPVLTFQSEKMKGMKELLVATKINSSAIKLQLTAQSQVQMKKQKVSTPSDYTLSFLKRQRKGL
Experiment: biochemical
Conditions: cell free IC50 (nM), 1 nM menin, 10 nM biotinylated MLL1 peptide, AlphaLISA
Method: Then, the fluorescence signal by AlphaLISA (registered trademark, PerkinElmer Co., Ltd.) was measured using a plate reader (PerkinElmer Co., Ltd., EnVisionXcite).

SMILES | IC50
COc1cncc(-c2ccc(CN[C@@H]3C[C@H](N(C)c4ncnc5sc(CC(F)(F)F)cc45)[C@@H](O)[C@H]3O)cc2)c1 [Example 20B, (1R,2S,3R,5S)-3-({[4-(5-methoxypyridin-3-yl)phenyl]methyl}amino)-5-{methyl[6-(2,2,2-trifluoroethyl)thieno[2,3-d]pyrimidin-4-yl]amino}cyclopentane-1,2-diol Hydrochloride] | 16.4 nM
CN(c1nc(N)nc2sc(CC(F)(F)F)cc12)[C@H]1C[C@@H](NCc2ccc(-n3ccnc3)cc2)C[C@H]1O [Example 21, (1R,2S,4R)-2-{[2-amino-6-(2,2,2-trifluoroethyl)thieno[2,3-d]pyrimidin-4-yl](methyl)amino}-4-({[4-(1H-imidazol-1-yl)phenyl]methyl}amino)cyclopentan-1-ol Hydrochloride] | 7 nM
CNc1nc(N(C)[C@H]2C[C@@H](NCc3ccc(-c4cnc(OC)c(OC)c4)cc3)C[C@@H]2OC)c2cc(CC(F)(F)F)sc2n1 [Example 24, N^4-[(1S,2S,4R)-4-({[4-(5,6-dimethoxypyridin-3-yl)phenyl]methyl}amino)-2-methoxycyclopentyl]-N^2,N^4-dimethyl-6-(2,2,2-trifluoroethyl)thieno[2,3-d]pyrimidine-2,4-diamine Hydrochloride] | 4.1 nM
CN(c1ncnc2sc(CC(F)(F)F)cc12)[C@@H]1CC[C@H](NCC2CCCCC2)C1 [Example 28, (1R,3S)-N^3-(cyclohexylmethyl)-N^1-methyl-N^1-[6-(2,2,2-trifluoroethyl)thieno[2,3-d]pyrimidin-4-yl]cyclopentane-1,3-diamine hydrochloride] | 1160 nM
CC(=O)Nc1ccc(CN[C@H]2CCC[C@@H](Nc3ncnc4sc(CC(F)(F)F)cc34)C2)cc1 [Example 29, N-[4-({[(1S,3R)-3-{[6-(2,2,2-trifluoroethyl)thieno[2,3-d]pyrimidin-4-yl]amino}cyclohexyl]amino}methyl)phenyl]acetamide hydrochloride] | 464 nM
CN(c1ncnc2sc(CC(F)(F)F)cc12)[C@@H]1CC[C@H](NCc2ccc(OCCN3CCOCC3)cc2)C1 [Example 30, (1R,3S)-N^1-methyl-N^3-({4-[2-(morpholin-4-yl)ethoxy]phenyl}methyl)-N^1-[6-(2,2,2-trifluoroethyl)thieno[2,3-d]pyrimidin-4-yl]cyclopentane-1,3-diamine hydrochloride] | 44.6 nM
CN(c1ncnc2sc(CC(F)(F)F)cc12)[C@@H]1CC[C@H](NCc2ccc(OCCO)c(F)c2)C1 [Example 31, 2-[2-fluoro-4-({[(1S,3R)-3-{methyl[6-(2,2,2-trifluoroethyl)thieno[2,3-d]pyrimidin-4-yl]amino}cyclopentyl]amino}methyl)phenoxy]ethan-1-ol hydrochloride] | 46.4 nM
CN(c1ncnc2sc(CC(F)(F)F)cc12)[C@@H]1CC[C@H](NCc2cnn(-c3ccccc3)c2)C1 [Example 32, (1R,3S)-N^1-methyl-N^3-[(1-phenyl-1H-pyrazol-4-yl)methyl]-N^1-[6-(2,2,2-trifluoroethyl)thieno[2,3-d]pyrimidin-4-yl]cyclopentane-1,3-diamine hydrochloride] | 94.9 nM
C=CS(=O)(=O)NCCCNC(=O)c1ccc(CN[C@H]2CC[C@@H](N(C)c3ncnc4sc(CC(F)(F)F)cc34)C2)cc1 [Example 34, N-{-3-[(ethenesulfonyl)amino]propyl}-4-({[(1S,3R)-3-{methyl[6-(2,2,2-trifluoroethyl)thieno[2,3-d]pyrimidin-4-yl]amino}cyclopentyl]amino}methyl)benzamide hydrochloride] | 413 nM
FC(F)(F)Cc1cc2c(N[C@@H]3CCC[C@H](NCc4ccc(-c5ncco5)cc4)C3)ncnc2s1 [Example 35, (1S,3R)-N^1-{[4-(1,3-oxazol-2-yl)phenyl]methyl}-N^3-[6-(2,2,2-trifluoroethyl)thieno[2,3-d]pyrimidin-4-yl]cyclohexane-1,3-diamine hydrochloride] | 1220 nM
CN(c1ncnc2sc(CC(F)(F)F)cc12)[C@@H]1CC[C@H](NCc2cncs2)C1 [Example 36, (1R,3S)-N^1-methyl-N^3-[(1,3-thiazol-5-yl)methyl]-N^1-[6-(2,2,2-trifluoroethyl)thieno[2,3-d]pyrimidin-4-yl]cyclopentane-1,3-diamine hydrochloride] | 636 nM
FC(F)(F)Cc1cc2c(N[C@@H]3CCC[C@H](NCc4ccc(-c5nnc[nH]5)cc4)C3)ncnc2s1 [Example 37, (1S,3R)-N^1-{[4-(4H-1,2,4-triazol-3-yl)phenyl]methyl}-N^3-[6-(2,2,2-trifluoroethyl)thieno[2,3-d]pyrimidin-4-yl]cyclohexane-1,3-diamine hydrochloride] | 701 nM
O=C1CCCN1Cc1ccc(CN[C@H]2CCC[C@@H](Nc3ncnc4sc(CC(F)(F)F)cc34)C2)cc1 [Example 38, 1-{[4-({[(1S,3R)-3-{[6-(2,2,2-trifluoroethyl)thieno[2,3-d]pyrimidin-4-yl[amino}cyclohexy]amino}methyl)phenyl]methyl}pyrrolidin-2-one hydrochloride] | 1850 nM
FC(F)(F)Cc1cc2c(N[C@@H]3CCC[C@H](NCc4ccc(-c5ccncc5)cc4)C3)ncnc2s1 [Example 40, (1S,3R)-N^1-{[4-(pyridin-4-yl)phenyl]methyl}-N^3-[6-(2,2,2-trifluoroethyl)thieno[2,3-d]pyrimidin-4-yl]cyclohexane-1,3-diamine hydrochloride] | 265 nM
FC(F)(F)Cc1cc2c(N[C@@H]3CCC[C@H](NCc4ccc(Oc5ccccc5)cc4)C3)ncnc2s1 [Example 41, (1S,3R)-N^1-[(4-phenoxyphenyl)methyl]-N^3-[6-(2,2,2-trifluoroethyl)thieno[2,3-d]pyrimidin-4-yl]cyclohexane-1,3-diamine hydrochloride] | 472 nM
OCCN(c1ncnc2sc(CC(F)(F)F)cc12)[C@@H]1CC[C@H](NCc2ccc(-c3cccnc3)cc2)C1 [Example 42, 2-{[(1R,3S)-3-({[4-(pyridin-3-yl)phenyl]methyl}amino)cyclopentyl][6-(2,2,2-trifluoroethyl)thieno[2,3-d]pyrimidin-4-yl[amino}ethan-1-ol hydrochloride] | 105 nM
CCN(c1ncnc2sc(CC(F)(F)F)cc12)[C@@H]1CC[C@H](NCc2ccc(-c3cccnc3)cc2)C1 [Example 43, (1R,3S)-N^1-ethyl-N^3-{[4-(pyridin-3-yl)phenyl]methyl}-N^1-[6-(2,2,2 trifluoroethyl)thieno[2,3-d]pyrimidin-4-yl]cyclopentane-1,3-diamine hydrochloride] | 76.2 nM
COc1cncc(-c2ccc(CN[C@H]3CC[C@@H](N(C)c4ncnc5sc(C6CC6)cc45)C3)cc2)c1 [Example 45, (1R,3S)-N^1-(6-cyclopropylthieno[2,3-d]pyrimidin-4-yl)-N^3-{[4-(5-methoxypyridin-3-yl)phenyl]methyl}-N^1-methylcyclopentane-1,3-diamine hydrochloride] | 33.3 nM
COc1cncc(-c2ccc(CN[C@H]3CC[C@@H](N(C)c4nc(C)nc5sc(CC(F)(F)F)cc45)C3)cn2)c1 [Example 46, (1R,3S)-N^3-[(5′-methoxy[2,3′-bipyridine]-5-yl)methyl]-N^1-methyl-N^1-[2-methyl-6-(2,2,2-trifluoroethyl)thieno[2,3-d]pyrimidin-4-yl]cyclopentane-1,3-diamine hydrochloride] | 39.4 nM
